Data as given in the SangsterLogP compilation.
Starred links: 1 amine or outer side, 2 acyl side, 3 side chain; linkers in the order of their positions; H or OH if unused. Positions of bridges follow the written chain, without caps; N, C: chain ends. Non-standard residues stand in square brackets, D forms with d. Residues, ends and D or L forms follow the SMILES beside them. Chains are numbered I, II in the order given. Actinocin(9to1) = Cc1c2oc3c(C)ccc(C(=O)[*:1])c3nc-2c(C(=O)[*:2])c(N)c1=O; NMeV = CN[CH](C(=O)O)C(C)C; Sar = CNCC(=O)O

Experiment: method code SF, from Hansch, C. & Leo, A. (1987). Log P database [Dataset]. Pomona College Medicinal Chemistry Project.

With `CCC1(CC2COc3ccccc3O2)C(=O)NC(=O)NC1=O` (configuration not stated) the logD (pH 2.0) was 1.85.
`CN(C)CCCCc1cccnc1` gave a logD (pH 11.0) of 1.49.
For `CNP(=O)(OC)Oc1ccc(Cl)cc1Cl` (configuration not stated), the logP was 2.41.
With `CC(=O)Nc1ccccc1Br` the logP was 1.4.
For `COC(=O)CCC(=O)N(C)c1ccc(S(=O)(=O)N(C)C)cc1`, the logP was 0.43.
In the case of `O=C(O)c1ccccc1-c1ccccc1C(=O)O`, the logD (pH 1.0) is reported as 2.07.
`OCCOCCN1CCN(CCCN2c3ccccc3Sc3ccc(C(F)(F)F)cc32)CC1` gave a logP of 4.49.
`O=C(O)c1ccc(NCc2ccccc2)cc1` showed a logP of 2.44.
`COc1ccccc1C` gave a logP of 2.74.
With `c1nc[nH]n1` the logP was -0.58.
In the case of `CCc1ccc2c(c1)N=C(C)NS2(=O)=O`, the logP is reported as 1.25.
Work on `CNC(=O)C=Cc1ccccc1` yielded a logP of 1.81.
With `CCN(CC)c1c(C)n(CC)c(=O)n(-c2ccccc2)c1=O` the logD (pH 7.4) was 2.2.
With `CCCCl` the logP was 2.04.
With `CC(=O)Nc1cccc(N(C)C)c1` the logP was 1.29.
Work on `Cc1c(N(C)C)c(=O)n(-c2ccccc2)c(=O)n1C` yielded a logD (pH 7.4) of 1.3.
Work on `O=Cc1ccsc1` yielded a logP of 1.01.
With `CCc1ccc2c(c1)C(=O)c1ccc(NC(C)=O)cc1S2(=O)=O` the logP was 3.44.
`O=S1(=O)NC(c2ccco2)=Nc2ccccc21` showed a logP of 1.06.
For `CCC1OC(=O)C(C)C(OC2CC(C)(O)C(C)O2)C(C)C(OC2OC(C)C(O)C(N(C)C)C2O)C(C)(O)CC(C)C(=O)C(C)C(O)C1(C)O` (configuration not stated), the logP was 1.44.
Work on `C[C@@H]1C[C@@H]([C@H](O)CC2CC(=O)NC(=O)C2)C(=O)[C@@H](C)C1` yielded a logP of 0.55.
`Cc1c(N(C)C)c(=O)n(-c2ccccc2)c(=O)n1CCO` showed a logD (pH 7.4) of 0.85.
`CC(=O)c1cccc(C#N)c1` gave a logD (pH 7.0) of 1.16.
In the case of `NC(=O)/C=C/c1ccc2c(c1)OCO2`, the logP is reported as 1.4.
For `CN(C)CC(CN1c2ccccc2Sc2ccccc21)N(C)C` (configuration not stated), the logP was 4.76.
For `CCc1n[nH]c(=O)[nH]c1=O`, the logP was 0.22.
In the case of `Cc1ccccc1OCC(O)CO` (configuration not stated), the logP is reported as 1.41.
With `CNc1ccc(S(=O)(=O)N(C)C)cc1` the logP was 1.43.
Compound `CCCC1CNC(C(=O)NC(C(C)O)C2OC(SC)C(O)C(O)C2O)C1` (configuration not stated) has a logD (pH 12.3) of 0.04.
Compound `N#CN=[N+]([O-])c1ccc([N+](=O)[O-])cc1` has a logP of 1.51.
Compound `Cc1csc(C=Cc2ccc([N+](=O)[O-])o2)n1` has a logP of 1.53.
For `CCOc1cc(Oc2ccc(C(F)(F)F)cc2Cl)ccc1[N+](=O)[O-]`, the logD (pH 5.9) was 4.7.
`NC(=O)c1ccc(O)cc1` showed a logP of 0.33.
For `O=c1cncc[nH]1`, the logP was -1.49.
Compound `CCCCC1OC(=O)c2ccccc21` (configuration not stated) has a logP of 2.8.
`O=S1(=O)Nc2ccccc2N1` showed a logP of 1.12.
In the case of `COC(=O)[C@@]12OC[C@@]34[C@H](C[C@@H]5C(C)=C(O)C(=O)C[C@]5(C)[C@H]3C(O)C1O)OC(=O)C(OC(=O)C=C(C)C(C)C)[C@@H]42` (some centres not stated), the logP is reported as 1.66.
`O=[N+]([O-])c1ccc(C=Cc2nccc(Cl)n2)o1` showed a logP of 1.31.
`c1cocn1` gave a logP of 0.12.
Compound `O=C(Nc1ccccc1)c1cccnc1` has a logP of 1.73.
`O=C(O)CSc1ccccc1` gave a logD (pH 1.0) of 1.88.
`CN(C)CCc1ccsc1` gave a logP of 1.94.
Compound `CNC(=O)NCCSCc1nc[nH]c1C` has a logP of -0.06.
With `C=C(C)CC1(CC)C(=O)NC(=S)NC1=O` the logP was 2.19.
`CC(C)C1OC(=O)c2ccccc21` (configuration not stated) gave a logP of 2.1.
In the case of `CC1(C)Cc2cccc(O)c2O1`, the logP is reported as 2.08.
`CC1(O)OC(=O)c2ccccc21` (configuration not stated) gave a logP of 0.81.
`COc1ccccc1OC` showed a logP of 1.79.
Compound `CSC(=O)Nc1ccccc1` has a logP of 2.4.
For `c1cncc([C@@H]2CCCCN2)c1`, the logD (pH 11.0) was 0.97.
`N=C(N)NS(=O)(=O)c1ccc(N)cc1` showed a logP of -1.22.
In the case of `O=C(c1ccccc1)c1cccnc1`, the logD (pH 8.0) is reported as 1.88.
For `CNc1ncnc2ccsc12`, the logD (pH 7.0) was 1.43.
Work on `Cc1c2oc3c(C)ccc(C(=O)NC4C(=O)NC(C(C)C)C(=O)N5CCCC5C(=O)N(C)CC(=O)N(C)C(C(C)C)C(=O)OC4C)c3nc-2c(C(=O)NC2C(=O)NC(C(C)C)C(=O)N3CCCC3C(=O)N(C)CC(=O)N(C)C(C(C)C)C(=O)OC2C)c(N)c1=O` (configuration not stated) (I: TVP[Sar][NMeV] / II: TVP[Sar][NMeV]; ester I:1-I:C, II:1-II:C; linker I:N-II:N via Actinocin(9to1); configuration not given here) yielded a logD (pH 7.4) of 3.21.
With `O=C(O)COc1ccc(S(=O)(=O)F)cc1` the logP was 1.82.
In the case of `O=C(O)c1cccc([N+](=O)[O-])c1C(=O)O`, the logD (pH 1.0) is reported as 0.75.
With `CNCc1ccccc1` the logD (pH 13.0) was 1.52.
For `O=C1C=CCCC1`, the logP was 0.61.
With `O=C[C@H](O)[C@@H](O)[C@H](O)[C@H](O)CO` the logD (pH 7.5) was -1.88.
`COc1cccc(OC)c1` gave a logP of 2.21.
In the case of `COc1ccccc1C=C(C(C)=O)C(C)=O`, the logP is reported as 1.73.
`CC1OC(C)OC(C)O1` (configuration not stated) gave a logD (pH 7.5) of 0.67.
With `O=C(Nc1ccccc1)N(c1ccccc1)c1ccccc1` the logP was 3.28.
For `Nc1cccc(Cl)c1`, the logP was 1.9.
`NC(=O)c1ccc(C(F)(F)F)cc1` gave a logP of 1.71.
In the case of `CCOC(=O)C(=Cc1ccc([N+](=O)[O-])cc1)C(=O)OCC`, the logP is reported as 3.03.
`CCOC(=O)CNCCCCCSc1c2[nH]cnc2nc[n+]1[O-]` gave a logP of 0.87.
In the case of `CCOC(=O)C(=Cc1ccc(Cl)c(Cl)c1)C(C)=O`, the logP is reported as 3.92.
`CC(=S)Oc1ccccc1` gave a logP of 1.91.
Compound `O=C1C=CC(=O)c2c(O)cccc21` has a logP of 1.92.
Work on `C[C@@H]1CC[C@H](C)N1C(=O)Nc1ccccc1` yielded a logP of 2.33.
`CC(=O)Nc1ccccc1[N+](=O)[O-]` gave a logP of 1.05.
